Measured values published in ChEMBL document CHEMBL3351556, “Thee-component, one-pot synthesis of hexahydroazepino[3,4-b]indole and tetrahydro-1H-pyrido[3,4-b]indole derivatives and evaluation of their cytotoxicity” (Bioorg Med Chem Lett, 2014).

How the values were obtained:
Format in all cases: functional, cell-based
A549 = assay: Antiproliferative activity against human A549 cells after 48 hrs by MTT/quantitative colorimetric method; conditions: A549, 48 h
MCF7 = assay: Antiproliferative activity against human MCF7 cells after 48 hrs by MTT/quantitative colorimetric method; conditions: MCF7, 48 h
HeLa = assay: Antiproliferative activity against human HeLa cells after 48 hrs by MTT/quantitative colorimetric method
DU-145 = assay: Antiproliferative activity against human DU145 cells after 48 hrs by MTT/quantitative colorimetric method; conditions: DU-145, 48 h

| IC50 (A549) | IC50 (MCF7) | IC50 (HeLa) | IC50 (DU-145) | SMILES |
| --- | --- | --- | --- | --- |
| 62 µM | 50 µM | 11 µM | 47 µM | Cn1c2c(c3ccccc31)CC(=O)N(c1ccc(F)cc1)C2C(=O)NC1CCCCC1 (configuration not stated) |
| > 100 µM | 52 µM | 49 µM | 45 µM | Cn1c2c(c3ccccc31)CC(=O)N(c1ccc(Br)cc1)C2C(=O)NC1CCCCC1 (configuration not stated) |
| 59 µM | > 100 µM | 55 µM | 42 µM | Cn1c2c(c3ccccc31)CC(=O)N(c1ccc(Cl)cc1)C2C(=O)NC1CCCCC1 (configuration not stated) |
| 85 µM | 95 µM | 25 µM | > 100 µM | Cn1c2c(c3ccccc31)CC(=O)N(c1cccc(F)c1)C2C(=O)NC1CCCCC1 (configuration not stated) |
| > 100 µM | 95 µM | > 100 µM | > 100 µM | Cc1ccc(C)c(N2C(=O)Cc3c(n(C)c4ccccc34)C2C(=O)NC2CCCCC2)c1 (configuration not stated) |
| > 100 µM | 61 µM | 26 µM | 78 µM | Cn1c2c(c3ccccc31)CC(=O)N(c1ccc(F)cc1)C2C(=O)NC(C)(C)C (configuration not stated) |
| 63 µM | 96 µM | 83 µM | > 100 µM | Cn1c2c(c3ccccc31)CC(=O)N(c1ccc(Cl)cc1)C2C(=O)NC(C)(C)C (configuration not stated) |
| 80 µM | > 100 µM | > 100 µM | 95 µM | Cn1c2c(c3ccccc31)CC(=O)N(c1ccc(F)c(Cl)c1)C2C(=O)NC(C)(C)C (configuration not stated) |
| 49 µM | 87 µM | 95 µM | 63 µM | Cc1ccc(C)c(N2C(=O)Cc3c(n(C)c4ccccc34)C2C(=O)NC(C)(C)C)c1 (configuration not stated) |
| 59 µM | 50 µM | 48 µM | 90 µM | Cn1c2c(c3ccccc31)CCC(=O)N(c1ccc(F)cc1)C2C(=O)NC1CCCCC1 (configuration not stated) |
| > 100 µM | 78 µM | 63 µM | 55 µM | Cn1c2c(c3ccccc31)CCC(=O)N(c1ccc(Br)cc1)C2C(=O)NC1CCCCC1 (configuration not stated) |
| 27 µM | 29 µM | 12 µM | 13 µM | Cn1c2c(c3ccccc31)CCC(=O)N(c1ccc(Cl)cc1)C2C(=O)NC1CCCCC1 (configuration not stated) |
| > 100 µM | 54 µM | > 100 µM | 82 µM | Cn1c2c(c3ccccc31)CCC(=O)N(c1ccc(F)c(Cl)c1)C2C(=O)NC1CCCCC1 (configuration not stated) |
| > 100 µM | 94 µM | 44 µM | 52 µM | Cn1c2c(c3ccccc31)CCC(=O)N(c1cccc(F)c1)C2C(=O)NC1CCCCC1 (configuration not stated) |
| > 100 µM | > 100 µM | > 100 µM | > 100 µM | Cc1ccc(C)c(N2C(=O)CCc3c(n(C)c4ccccc34)C2C(=O)NC2CCCCC2)c1 (configuration not stated) |
| > 100 µM | 50 µM | 46 µM | 70 µM | Cn1c2c(c3ccccc31)CCC(=O)N(c1ccc(F)cc1)C2C(=O)NC(C)(C)C (configuration not stated) |
| 18 µM | 18 µM | 13 µM | 21 µM | Cn1c2c(c3ccccc31)CCC(=O)N(c1ccc(Cl)cc1)C2C(=O)NC(C)(C)C (configuration not stated) |
| 35 µM | > 100 µM | 67 µM | 56 µM | Cn1c2c(c3ccccc31)CCC(=O)N(c1ccc(F)c(Cl)c1)C2C(=O)NC(C)(C)C (configuration not stated) |
